Results: patent US20150216794A1, “METHODS OF TREATING PAIN ASSOCIATED WITH OSTEOARTHRITIS OF A JOINT WITH A TOPICAL FORMULATION OF A SPIRO-OXINDOLE COMPOUND” (IVAX International GmbH, priority 2014, published 2015)
“And” between values parts separate entries of the source, which are not always exact repeats. Equal entries are not always repeated.

What was measured:
NaV1.7 = NaV1.7 (Homo sapiens, UniProt Q15858); assay: block of NaV1.7 (inactivated vs resting state); format: biochemical
From the text: NaV1.7 is expressed primarily in the peripheral nervous system in both sensory and sympathetic neurons (Raymond, C. K., et al., op. cit.). Loss-of-function mutations in SCN9A (the gene encoding the alpha subunit of the NaV1.7 sodium channel) cause a human condition known as congenital indifference to pain characterized by an inability to perceive pain (Cox, J. J., et al., Nature (2006), 444:894-98; Goldberg, Y. P., et al., Clin Genet (2007), 71:311-9). Gain-of-function mutations in SCN9A are associated with inherited erythromelalgia (IEM) (Drenth, J. P., et al., J Invest Dermatology (2005), 124:1333-8), which is characterized by spontaneous or easily evoked severe pain. Furthermore, up to 29% of biopsy-proven cases of idiopathic small-fiber neuropathy manifesting mainly as distal severe pain (Faber, C. G., et al., Ann Neurol (2012), 71:26-39) are associated with gain-of-function NaV1.7 channel mutations.

[1] = domestic pig joint penetration: concentration in synovial membrane; format: in vivo
Method: This study was conducted to evaluate the joint penetration, systemic plasma exposure and tissue distribution of the spiro-oxindole compound in domestic pigs following topical administration of a pharmaceutical composition utilized in the methods of the invention. Fifteen female pigs were used in this study with three pigs in each group. Beginning on Day 1, a pharmaceutical composition of the invention was topically applied to the left radiocarpal joint (carpus) and tibiotarsal joint (hock) twice daily (bid) for 17 days (34 applications) for Groups 1-4 and once daily (qd) for 17 days (17 applications) for Group 5. Pre-dose blood samples (prior to morning dosing) was collected on Days 2, 7, 10, 14 and 17. A full pharmacokinetic sampling was performed on Day 17 (post am dosing) at the following time points: 1, 2, 4, 8 and 12 hr. On the day of necropsy, Day 18, blood was collected prior to euthanasia, each pig was humanely euthanized and dorsal skin and muscle, liver, kidney, heart, lung, brain, intestine, fat, ovaries, urinary bladder, sciatic nerve, and skin, muscle, synovial membrane, and synovial fluid from all 4 joints (2 treated, left carpus and hock, and 2 untreated, right carpus and hock) was collected.
Doses were calculated by measuring the joint circumference and joint width (to include ˜2 cm above and below the joint) to calculate the total surface area for each individual dose. Group 1 received a 2% pharmaceutical composition of the invention and the dose volume for Group 1 was calculated using the total surface area and the designated dose volume of 3 μL/cm^2. The total dose volume was then converted from μL to mL to estimate the dose weight in grams, based on the composition density of 1 g/cm^3. Following is an example (not actual measurements) of calculating the dose:
For Groups 2-5, the dose volume was calculated using the total surface area and the designated dose volume of 3 μL/cm^2 (Groups 2, 3 and 5) or 1 μL/cm^2 (Group 4). The total dose volume was then converted from μL to mL to estimate the dose length in centimeters of a ribbon of the pharmaceutical composition when squeezed from a glaminate tube onto a metal metric ruler, based on the composition length-weight relationship of 1 cm of pharmaceutical composition being equal to 0.5 g of the composition (diameter of the tube opening was 0.87 cm).
The test compositions were topically applied an equal distance above and below the center of the joint, i.e., inter-carpal joint space (carpus) and inter-tarsal joint space (hock) of each animal to allow for complete coverage of the joint, including approximately 2 cm above and below the edges of the joint. The test composition was applied to the entire circumference of the designated area. All animals were dosed using the same distance above and below each joint center for consistency.
The dose volume (μL/cm^2) for the test pharmaceutical compositions was 3.0 μL/cm^2 for Groups 1, 2, 3 and 5 and 1.0 μL/cm^2 for Group 4.
The following tissue samples were collected after euthanasia: • Dorsal skin and muscle (from the mid-back) • Liver—Left Medial Lobe • Kidney—Right • Heart • Lung—Right diaphragmatic lobe • Brain—Right cerebral hemisphere • Intestine—mid-jejunum • Duodenum (10-15 cm length) from all 6 animals in Groups 1 and 2 • Fat • Ovary—Right • Urinary bladder • Sciatic nerve from both legs • Skin, muscle underlying site of administration and synovial membrane of all 4 joints (treated left carpus and hock and untreated right carpus and hock)

[2] = minipig: tissue distribution of radioactivity and unchanged compound; format: in vivo, Göttingen minipig; conditions: for concentration at 24 h: male, Göttingen, minipig, topical, 70 mg spiro-oxindole compound equivalents ointment/kg
From the text: The following tissues/organs were removed from the remaining carcass:
The urinary bladder from each animal was rinsed with saline and the washings discarded. Each section of the gastrointestinal tract wall was washed to remove contents (which were retained for analysis) prior to analysis. Remaining carcasses were discarded.

[3] = minipig: metabolite profile of urine and bile (UPLC); format: in vivo, Göttingen minipig; conditions: none consistent with spiro-oxindole compound
From the text: Attempts to separate radioactive components using HPLC with radioactivity detection present in plasma, liver and excreta were unsuccessful due to low radioactivity levels in samples submitted for further analysis.

NaV1.7, sequence (Q15858 whole entry): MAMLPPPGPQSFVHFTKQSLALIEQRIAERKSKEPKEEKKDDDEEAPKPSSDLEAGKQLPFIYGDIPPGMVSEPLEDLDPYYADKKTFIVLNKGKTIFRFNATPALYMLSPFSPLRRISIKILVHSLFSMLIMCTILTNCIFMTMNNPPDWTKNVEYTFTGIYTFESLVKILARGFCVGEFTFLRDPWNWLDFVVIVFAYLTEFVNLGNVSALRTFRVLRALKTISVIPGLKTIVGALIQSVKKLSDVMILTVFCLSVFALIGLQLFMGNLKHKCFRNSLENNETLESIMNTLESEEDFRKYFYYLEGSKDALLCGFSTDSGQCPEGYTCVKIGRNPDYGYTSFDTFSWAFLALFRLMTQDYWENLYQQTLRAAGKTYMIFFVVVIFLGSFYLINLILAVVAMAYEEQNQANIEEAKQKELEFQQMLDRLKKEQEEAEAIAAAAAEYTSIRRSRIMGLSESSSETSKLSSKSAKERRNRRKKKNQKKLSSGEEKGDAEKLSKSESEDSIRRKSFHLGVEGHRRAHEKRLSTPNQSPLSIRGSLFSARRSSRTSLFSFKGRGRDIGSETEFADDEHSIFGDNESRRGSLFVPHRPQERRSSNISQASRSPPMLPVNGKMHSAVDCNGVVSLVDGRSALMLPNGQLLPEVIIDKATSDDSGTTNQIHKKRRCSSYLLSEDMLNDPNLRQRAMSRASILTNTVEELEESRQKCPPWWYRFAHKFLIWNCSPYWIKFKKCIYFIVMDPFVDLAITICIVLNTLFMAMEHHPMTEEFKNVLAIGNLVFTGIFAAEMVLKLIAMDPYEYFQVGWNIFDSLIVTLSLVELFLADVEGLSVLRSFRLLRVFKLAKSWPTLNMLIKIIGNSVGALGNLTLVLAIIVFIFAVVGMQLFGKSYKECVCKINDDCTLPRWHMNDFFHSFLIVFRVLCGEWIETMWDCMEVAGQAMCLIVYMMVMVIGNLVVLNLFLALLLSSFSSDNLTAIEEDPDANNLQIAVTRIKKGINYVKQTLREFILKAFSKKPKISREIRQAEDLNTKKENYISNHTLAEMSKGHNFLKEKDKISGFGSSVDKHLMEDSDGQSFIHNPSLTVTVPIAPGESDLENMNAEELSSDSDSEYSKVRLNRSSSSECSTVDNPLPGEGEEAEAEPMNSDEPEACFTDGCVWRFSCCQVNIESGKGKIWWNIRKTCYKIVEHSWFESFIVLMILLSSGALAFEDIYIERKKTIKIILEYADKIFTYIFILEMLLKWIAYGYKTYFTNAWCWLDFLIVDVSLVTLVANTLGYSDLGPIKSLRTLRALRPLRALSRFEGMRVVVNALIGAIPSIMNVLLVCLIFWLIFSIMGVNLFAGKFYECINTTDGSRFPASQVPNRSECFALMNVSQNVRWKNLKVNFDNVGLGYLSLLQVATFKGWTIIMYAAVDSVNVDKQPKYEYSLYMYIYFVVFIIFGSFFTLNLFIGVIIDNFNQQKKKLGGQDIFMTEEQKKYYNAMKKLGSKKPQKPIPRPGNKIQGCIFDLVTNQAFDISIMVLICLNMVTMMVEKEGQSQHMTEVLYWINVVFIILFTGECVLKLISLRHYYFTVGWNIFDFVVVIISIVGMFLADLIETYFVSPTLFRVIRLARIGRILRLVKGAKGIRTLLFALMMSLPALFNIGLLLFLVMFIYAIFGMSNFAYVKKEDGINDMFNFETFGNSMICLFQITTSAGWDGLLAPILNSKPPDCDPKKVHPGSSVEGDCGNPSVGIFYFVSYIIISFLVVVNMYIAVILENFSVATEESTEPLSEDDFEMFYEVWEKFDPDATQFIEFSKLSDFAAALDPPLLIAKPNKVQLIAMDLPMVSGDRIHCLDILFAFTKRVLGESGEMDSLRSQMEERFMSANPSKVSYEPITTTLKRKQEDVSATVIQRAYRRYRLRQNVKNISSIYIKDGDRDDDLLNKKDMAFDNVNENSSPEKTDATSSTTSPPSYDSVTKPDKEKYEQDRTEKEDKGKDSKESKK

SMILES: O=C1N(Cc2ccc(C(F)(F)F)o2)c2ccccc2[C@]12COc1cc3c(cc12)OCO3 [spiro-oxindole compound, (S)-1′-{[5-(trifluoromethyl)furan-2-yl]methyl}spiro[furo[2,3-f][1,3]benzodioxole-7,3′-indol]-2′(1′H)one]
- potency of the block, inactivated state compared with resting state (NaV1.7; NaV1.7): approximately 220 fold
- IC50 (NaV1.7; inactivated state): 0.05 µM
- IC50 (NaV1.7; resting state): 11.3 µM
- concentration in synovial membrane tissue, individual animals ([1]; G1 (#1-#3): 2% composition, 3.0 μL/cm^2 bid 17 days, Treated left carpus): 126.88 ng/g and 56.86 ng/g and 105.89 ng/g
- concentration in synovial membrane tissue, individual animals ([1]; G1 (#1-#3): 2% composition, 3.0 μL/cm^2 bid 17 days, Treated left hock): 152.13 ng/g and 38.86 ng/g and 54.04 ng/g
- concentration in synovial membrane tissue, individual animals ([1]; G1 (#1-#3): 2% composition, 3.0 μL/cm^2 bid 17 days, Untreated right carpus): 70.83 ng/g and 84.97 ng/g and 44.47 ng/g
- concentration in synovial membrane tissue, individual animals ([1]; G1 (#1-#3): 2% composition, 3.0 μL/cm^2 bid 17 days, Untreated right hock): 97.22 ng/g and 33.16 ng/g and 41.19 ng/g
- concentration in synovial membrane tissue, individual animals ([1]; G2 (#4-#6): 4% composition, 3.0 μL/cm^2 bid 17 days, Treated left carpus): 72.14 ng/g and 269.82 ng/g and 183.72 ng/g
- concentration in synovial membrane tissue, individual animals ([1]; G2 (#4-#6): 4% composition, 3.0 μL/cm^2 bid 17 days, Treated left hock): 132.05 ng/g and 95.93 ng/g and 131.87 ng/g
- concentration in synovial membrane tissue, individual animals ([1]; G2 (#4-#6): 4% composition, 3.0 μL/cm^2 bid 17 days, Untreated right carpus): 114.15 ng/g and 100.42 ng/g and 129.30 ng/g
- concentration in synovial membrane tissue, individual animals ([1]; G2 (#4-#6): 4% composition, 3.0 μL/cm^2 bid 17 days, Untreated right hock): 92.75 ng/g and 69.80 ng/g and 98.28 ng/g
- concentration in synovial membrane tissue, individual animals ([1]; G3 (#7-#9): 8% composition, 3.0 μL/cm^2 bid 17 days, Treated left carpus): 708.62 ng/g and 737.86 ng/g and 137.46 ng/g
- concentration in synovial membrane tissue, individual animals ([1]; G3 (#7-#9): 8% composition, 3.0 μL/cm^2 bid 17 days, Treated left hock): 252.46 ng/g and 576.83 ng/g and 1917.93 ng/g
- concentration in synovial membrane tissue, individual animals ([1]; G3 (#7-#9): 8% composition, 3.0 μL/cm^2 bid 17 days, Untreated right carpus): 54.19 ng/g and 185.83 ng/g and 130.63 ng/g
- concentration in synovial membrane tissue, individual animals ([1]; G3 (#7-#9): 8% composition, 3.0 μL/cm^2 bid 17 days, Untreated right hock): 82.74 ng/g and 737.82 ng/g and 167.55 ng/g
- concentration in synovial membrane tissue, individual animals ([1]; G4 (#10-#12): 8% composition, 1.0 μL/cm^2 bid 17 days, Treated left carpus): 49.99 ng/g and 59.22 ng/g and 159.68 ng/g
- concentration in synovial membrane tissue, individual animals ([1]; G4 (#10-#12): 8% composition, 1.0 μL/cm^2 bid 17 days, Treated left hock): 291.56 ng/g and 38.32 ng/g and 3171.10 ng/g
- concentration in synovial membrane tissue, individual animals ([1]; G4 (#10-#12): 8% composition, 1.0 μL/cm^2 bid 17 days, Untreated right carpus): 34.85 ng/g and 1772.86 ng/g and 46.92 ng/g
- concentration in synovial membrane tissue, individual animals ([1]; G4 (#10-#12): 8% composition, 1.0 μL/cm^2 bid 17 days, Untreated right hock): 26.20 ng/g and 0.00 ng/g and 45.29 ng/g
- concentration in synovial membrane tissue, individual animals ([1]; G5 (#13-#15): 8% composition, 3.0 μL/cm^2 qd 17 days, Treated left carpus): 702.22 ng/g and 150.00 ng/g and 35.31 ng/g
- concentration in synovial membrane tissue, individual animals ([1]; G5 (#13-#15): 8% composition, 3.0 μL/cm^2 qd 17 days, Treated left hock): 31.44 ng/g and 100.00 ng/g and 55.90 ng/g
- concentration in synovial membrane tissue, individual animals ([1]; G5 (#13-#15): 8% composition, 3.0 μL/cm^2 qd 17 days, Untreated right carpus): 11.61 ng/g and 25.25 ng/g and 79.58 ng/g
- concentration in synovial membrane tissue, individual animals ([1]; G5 (#13-#15): 8% composition, 3.0 μL/cm^2 qd 17 days, Untreated right hock): 18.69 ng/g and 37.98 ng/g and 21.70 ng/g
- concentration in synovial membrane tissue of treated joint (in words) ([1]; domestic pig, topical administration to a joint): micromolar concentrations
- tissue radioactivity concentrations in the majority of tissues analysed ([2]; limit of quantification ca 12-25 ng equivalents spiro-oxindole compound/g): below the limit of quantification
- concentration at 24 h ([2]; heart): 17.5 ng/g
- concentration at 24 h ([2]; liver): 11.3 ng/g
- concentration at 24 h ([2]; skin from the dose site): 1860 ng/g
- concentration at 24 h ([2]; white fat): 53.8 ng/g
- radioactive peaks observed by UPLC ([3]; bile (gall bladder contents)): another two peaks
- radioactive peaks observed by UPLC ([3]; urine): two distinct peaks
